Assay results: patent publication US12002595B2, “Separation of metal ions by liquid-liquid extraction” (priority 2016, dated 2024)
Converted amounts (≈) assume the structure as drawn. Where two headings read alike, the source gives them in different places.

Key:
[1] = Pb^2+; 25° C.; cited from earlier work
[2] = UO2^2+; 25° C.; cited from earlier work
[3] = Aqueous solubility of the ligand; type: physicochemical; conditions: water; room temperature
[4] = Gd^3+; 25° C.; cited from earlier work
[5] = Am^3+; 25° C.; cited from earlier work
[6] = Persistence of the metal complex versus acidity; type: binding; conditions: Sn^4+
[7] = Extraction by HDEHP at constant pH with 3,4,3-LI(1,2-HOPO) as hold-back reagent; conditions: 1 mM ligand; for % Extraction: 0.1 M HNO3/1.9 M NaNO3, extraction of ^242Plutonium(IV); for SF Am^3+/Pu^4+: to be seen as lower limit
Description: (§1) In FIG. 26, aqueous phase: [ligand]=1 mM, buffer 0.1 M HNO3/1.9 M NaNO3. Organic phase: HDEHP diluted in kerosene. [HDEHP]=0.05, 0.10, 0.25, 0.50, 1.0, or 2.0 M. T=25° C. Volume organic phase/Volume aqueous phase=1. Initial metal concentrations: [Pu-242]=10 μM, [Am-243]=0.25 μM, or [Gd-153]=0.16 nM. Phases analyzed after one contact. Contact time: 30 min.
(§2) The separation factor values given here must been seen as lower limit since the extraction of Pu(IV) is near zero.

[8] = as above; conditions: 1 mM ligand; for % Extraction: 0.1 M HNO3/1.9 M NaNO3, extraction of ^153Gadolinium(III); for SF Gd^3+/Pu^4+: to be seen as lower limit
Description: as §1
The separation factor values given here must been seen as lower limit since the extraction of Pu(IV) is near zero. […]

[9] = Persistence of the metal complex versus acidity; type: binding; conditions: Zr^4+
[10] = Back-extraction from 30% TBP in kerosene (modified PUREX) with 343HOPO; conditions: 1 mM 343HOPO, up to 8 M HNO3
Description: Dotted lines: separation factor U/Pu. Organic phase: 30% TBP in kerosene.
For Example 20—Example 24, pH measurements were performed with a glass electrode (Metrohm-Micro Combi-response to [H+]) calibrated at 25.0° C. using three NIST standards. Extraction samples were analyzed by liquid scintillation counting (LSC). The distribution coefficient, D(M), of a given metal, M, is defined in Eq. 1, where [M]organic and [M]aqueous are the respective total concentrations of M in the organic and aqueous layers, after extraction. Both concentrations are proportional to the volumetric activity (in Bq/L) determined by LSC. The separation factor, SFM1/M2, between two metals, M1 and M2, and extraction yield were calculated according to Eq. 2 and Eq. 3, respectively.
In a typical experiment, the solvent (extractant diluted in kerosene) was pre-conditioned by shaking one volume of solvent with three volumes of aqueous phase (typically HNO3) at room temperature for 1 h, thrice. […] Samples were counted for at least 6 min and results were background subtracted. […] Mixtures of ^249Bk and ^249Cf were analyzed using α/β discrimination and energy windows were set to 0-50 keV for low-energy β particles of ^249Bk and 50-1000 keV for α particles of ^249Cf. ^243Am and ^225Ac samples were counted at secular equilibrium.

[11] = Extraction by HDEHP at constant pH with 3,4,3-LI(1,2-HOPO) as hold-back reagent; conditions: 1 mM ligand, 0.1 M HNO3/1.9 M NaNO3; for % Extraction: extraction of ^243Americium(III)
Description: as §1, §2
as §1, with “28,” for “26,”, “concentrations:” for “concentrations: [Pu-242]=10 μM,”, “min. Corresponding separation factors (SF) are given on the right Y-axis. SF Gd/Am=Ratio [Gd]/[Am] in the final organic phase/Ratio [Gd]/[Am] in the initial aqueous solution.” for “min.”

## O=C(NCCCN(CCCCN(CCCNC(=O)c1cccc(=O)n1O)C(=O)c1cccc(=O)n1O)C(=O)c1cccc(=O)n1O)c1cccc(=O)n1O [3,4,3-LI(1,2-HOPO)]
[1]
  log βML: 18.0 ± 0.2
[2]
  log βML: 18.0 ± 0.4
[3]
  solubility: 1000 mM (≈ 751 mg/mL)
[4]
  log βML: 20.5 ± 0.1
[5]
  log βML: 20.4 ± 0.2
[6]
  acidity range over which the ligand stays bound: from pH 8 to 1 M HCl
[7]; HDEHP 0.05 M
  % Extraction: 0.02%
  SF Am^3+/Pu^4+: 14
[7]; HDEHP 0.10 M
  % Extraction: 0.02%
  SF Am^3+/Pu^4+: 84
[7]; HDEHP 0.25 M
  % Extraction: 0.05%
  SF Am^3+/Pu^4+: 236
[7]; HDEHP 0.50 M
  % Extraction: 0.03%
  SF Am^3+/Pu^4+: 1450
[7]; HDEHP 1.00 M
  % Extraction: 0.16%
  SF Am^3+/Pu^4+: 624
[7]; HDEHP 2.00 M
  % Extraction: 0.21%
  SF Am^3+/Pu^4+: 649
[8]; HDEHP 0.05 M
  % Extraction: 4.92%
  SF Gd^3+/Pu^4+: 331
[8]; HDEHP 0.10 M
  % Extraction: 23.79%
  SF Gd^3+/Pu^4+: 1948
[8]; HDEHP 0.25 M
  % Extraction: 73.91%
  SF Gd^3+/Pu^4+: 5976
[8]; HDEHP 0.50 M
  % Extraction: 92.15%
  SF Gd^3+/Pu^4+: 39182
[8]; HDEHP 1.00 M
  % Extraction: 97.85%
  SF Gd^3+/Pu^4+: 28460
[8]; HDEHP 2.00 M
  % Extraction: 99.26%
  SF Gd^3+/Pu^4+: 64723
[9]
  acidity range over which the ligand stays bound: from pH 8 to strongly acidic solutions (at least 6 M HCl)
[10]
  SFU/Pu: ≤ 5,800
[11]; HDEHP 0.05 M
  SF Gd^3+/Am^3+: 24.1
  % Extraction: 0.21%
[11]; HDEHP 0.10 M
  SF Gd^3+/Am^3+: 23.3
  % Extraction: 1.32%
[11]; HDEHP 0.25 M
  SF Gd^3+/Am^3+: 25.3
  % Extraction: 10.08%
[11]; HDEHP 0.50 M
  SF Gd^3+/Am^3+: 27.0
  % Extraction: 30.27%
[11]; HDEHP 1.00 M
  SF Gd^3+/Am^3+: 45.6
  % Extraction: 49.98%
[11]; HDEHP 2.00 M
  SF Gd^3+/Am^3+: 99.8
  % Extraction: 57.29%
